Source: PMC4633953, “FR171456 is a specific inhibitor of mammalian NSDHL and yeast Erg26p” (Nature Communications, 2015)
Where “and” joins values, the source holds several entries; their conditions need not be identical. Identical values can stand only once.

Assays:
[1] = test system: Scedosporium apiospermum NF4908; assay: Antifungal MIC; assay type: cell-based
Erg26p [2] = molecular target: T1, Erg26p (Saccharomyces cerevisiae, UniProt P53199); assay: biochemical
T1 sequence (P53199 1-349): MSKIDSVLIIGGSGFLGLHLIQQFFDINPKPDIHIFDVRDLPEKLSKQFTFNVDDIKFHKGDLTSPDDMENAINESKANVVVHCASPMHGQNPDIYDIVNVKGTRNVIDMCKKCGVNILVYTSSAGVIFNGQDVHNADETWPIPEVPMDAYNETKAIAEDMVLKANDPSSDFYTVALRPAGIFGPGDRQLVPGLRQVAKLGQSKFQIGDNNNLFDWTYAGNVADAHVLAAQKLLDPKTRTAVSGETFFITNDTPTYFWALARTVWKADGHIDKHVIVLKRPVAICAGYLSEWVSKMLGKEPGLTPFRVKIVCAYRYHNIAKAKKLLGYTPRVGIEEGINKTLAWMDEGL
Procedure: (§1) To test this hypothesis an in vitro microsomal Erg26p activity assay[30] was used. Erg26p activity was directly assessed in the presence of increasing concentrations of FR171456 (10 nM–0.1 mM) in the presence of 150 μM carboxysterol substrate (Fig. 1c) and the cofactor NAD^+ (0.5 mM) followed by GC-MS detection of the product 4α-methyl-cholest-8,24-dien-3-one.
(§2) Wild-type yeast (FL200) microsomes were prepared as follows. Yeast cells were disrupted by glass bead homogenization (0.45-mm diameter) in 100 mM phosphate buffer (pH 7.5) containing 1.5 mM reduced glutathione and 30 mM nicotinamide for 8 min at 0 °C[44]. The cell extract was obtained by centrifugation at 10,000 × g for 20 min. Microsomes were then isolated by centrifuging the cell extract supernatant at 100,000 × g for 90 min. The resulting microsomal pellet was resuspended in 100 mM phosphate buffer (pH 7.5) containing 3 mM reduced glutathione and 20% glycerol (v/v) using an Elvehjem–Potter homogenizer. Yeast microsomes (1.2 mg of protein) were incubated in the presence of 4α-carboxy-4β-methyl-cholest-8,24-dien-3β-ol (50–300 mM) and NAD^+ (0.5 mM) for 35–45 min at 30 °C. After addition of coprostanone (2–6 μg) as internal standard, the reactions were extracted as described previously[12]. The extract was analysed by TLC on silica gel and eluted twice with CH2Cl2. The fraction migrating between a standard of 4-desmethyl-sterone (RF= 0.50) and 4,4-dimethyl-sterone (RF=0.70) was eluted and analysed using a GC-MS spectrometer (Agilent 5973 N).
(§3) In the case of inhibition assays, microsomes were incubated for 35–45 min at 30 °C in the presence of 4α-carboxy-4β-methyl-cholest-8,24-dien-3β-ol (50–300 mM) and a range of inhibitor concentration (0.01–100 μM) from which a dose–response curve was obtained allowing the corresponding I50 values to be determined.
(§4) The GC-MS spectrometer (Agilent 5973 N) was equipped with an ‘on column' injector and a capillary column (30 × 0.25 mm) coated with DB5 (H2 flow rate of 2 ml min^−1). The temperature program included a 30 °C min^−1 increase from 60 °C to 240 °C, and followed by a 2 °C/min increase from 240 °C to 280 °C. The areas of the GC peaks of coprostanone (tR=1.000) and of the produced 4α-methyl-cholest-8,24-dien-3-one (tR=1.139), corrected from endogenous component of the same tR (1.139) determined in the blank (boiled microsomes), allowed the rate of transformation of 4α-carboxy-4β-methyl-cholest-8,24-dien-3β-ol to be measured. Under these conditions, the estimated limit of detection of the 3βHSD/D activity was 0.1 nmol h^−1 mg^−1.

[3] = test system: ergosterol pathway intermediates in C. albicans SC5314; assay: Focused metabolomics: 13C-labelled ergosterol pathway intermediates in C. albicans; assay type: cell-based; conditions: increasing doses
Procedure: For ^13C- labelling studies, the wild type C. albicans strain SC5314 was obtained from ATCC (Manassas, VA) and was cultured at 30 °C in YPD broth (1% yeast extract, 2% peptone, 2% dextrose) or Synthetic Medium (3% glycerol, 0.1% glucose, 65 mM NH4Cl, 1.7 mM NaCl, 7 mM KH2PO4, 1 mM CaCl2, 0.5 mM MgSO4).
Approximately 1.25 × 10^8 C. albicans cells from a saturated YPD culture were inoculated into 100 ml Synthetic Medium (SM) and grown at 30 °C to an OD of 1.0. Cells were washed once in modified SM (25 mM KPO4 pH 7.0, with glucose omitted) and suspended to 5 OD600 units per ml in modified SM.
Labelling reactions were performed in 12-ml glass tubes with PTFE-lined caps (Corning) and containing 1 ml cell suspension (∼6 × 10^7 cells), 10 μl DMSO or 10 μl compound dissolved in DMSO, 12 μl 1M D-Glucose (U^-13C6 glucose), and 10 μl 1 M (1,2^-13C2) sodium acetate (Cambridge Isotope Laboratories, Inc). Before LC-MS analysis, dried lipid extracts were dissolved in 500 μl methanol, vortexed and sonicated for 10 min.
Squalene, ergosterol, lanosterol and zymosterol were quantified using the tandem mass spectrometer API4000 triple quadrupole (AB Sciex) with atmospheric pressure chemical ionization (APCI), interfaced to an Agilent LC.
Cells (∼6 × 10^7) and compounds were preincubated 15 min at 30 °C (without shaking) before the addition of labelled substrates. Labelling was performed at 30 °C with shaking for 4 h. Reactions were stopped by adding 1 ml 30% KOH, 1 ml 100% ethanol, and 0.2 ml 2% pyrogallol. Samples were mixed and then heated at 80 °C for 30 min, then cooled to room temperature. Non-saponifiable lipids were extracted two times in petroleum ether, washed with water, dried under nitrogen gas and stored at −80 °C.
For compound calibration, 2 μM solutions in 0.1% formic acid were directly infused into the mass spectrometer. Ergosterol, lanosterol and zymosterol undergo dehydration and their molecular species are detected as [M+H-H2O]^+ while squalene is detected as [M+H]^+. Supplementary Table 4 lists the multiple reaction monitoring parameters of the sterols and squalene, as well as the ^13C incorporated metabolites. The mass spectrometer source parameters are the following: CUR=40, GS1=60, NC=4.5. TEM=450 CAD=4. A mobile phase of 0.2% formic acid in methanol and isocratic run at 0.4 ml min^−1 was employed to separate the metabolites on a Waters XBridge C18 3.5 μm 2.1 × 50 mm column. The run time was 4.5 min.

[4] = test system: Candida parapsilosis NF2903; assay: Antifungal MIC; assay type: cell-based; conditions: Lodderomyces parapsilosis
[5] = test system: sterol pathway intermediates in Huh-7 cells; conditions: 80 nM vs 0 nM FR171456, 48 h
Procedure: In an attempt to understand which sterol (and other) metabolites are altered by FR171456 a metabolite-profiling experiment was conducted using cells from the original replicon assay exposed to vehicle or four concentrations of FR171456 (Fig. 1c,f, Methods, supplementary Fig. 2). Peaks in the mass spectra with statistically significant differences in intensities between the high (80 nM) and low (0 nM) concentration samples were selected by P values <0.01 (Student's t-test, Bonferroni corrected) and ranked by fold changes. Metabolite identities were assigned to those peaks whose m/z ratio corresponds to the mass of known metabolites (Supplementary Table 1).
Samples of cell pellets containing 8 × 10^6 cells each were lysed and extracted with 300 μl cold methanol (−80 °C) in ultrasonic bath for 10 min and subsequently agitated for 5 min before centrifugation at 10,000 g for 5 min at 4 °C. The supernatants were removed and the remaining pellets were again extracted twice. The supernatants from three extractions were then combined and dried using a SpeedVac (Savant, Fisher Scientific Inc., USA) for 2 h without heating. The residues were resuspended in 200 μl of 80% MeOH and centrifuged to remove any non-dissolvable particles. Finally, 10 μl of the supernatant was then diluted by factor 100 in MeOH/H2O (1:1) for mass spectrometric analysis.
The diluted sample (100 μl) was infused directly into a LTQ-Orbitrap mass spectrometer (Thermo Fisher Scientific, USA) using a HTC PAL autosampler (CTC Analytics, Zwingen, Switzerland) at a flow rate of 18 μl min^–1. A make-up flow, consisting of 70% ethanol and 0.1% formic acid, was delivered through a T-piece at 15 μl min^–1. Electrospray ionization and selected monitoring scan were applied. The total mass range m/z 100–2,000 was segmented into […] scan events with a width of mass window m/z 50 each. Mass resolution at m/z 400 was 100,000.
Each sample was measured in triplicate in positive ionization mode in random order. For quality and instrument stability control, the samples were interspersed with test mix infusion and pooled samples. Blank spectra were also recorded and the observed mass peaks of solvent and impurities were then suppressed in subsequent analysis.
The measured raw spectra were imported with in-house software written in the Igor package (Wavemetrics Inc.) for alignment, peak detection, and integral normalization. The table of exact peak masses and intensities (Supplementary Data, file Supplementary Dataset 1) were exported into the statistical software R, version 2.15.1, for subsequent univariate statistics and pathway analysis. For peak identification, the KEGG database was searched for matches of the observed peaks with endogenous metabolite entries. Metabolite masses with adducts of H^+, Na^+, or K^+ were considered a hit and possible identity of a peak if the difference between its exact monoisotopic mass and the observed mass plus adducts was below 3 p.p.m.

Erg26p [6] = molecular target: T1, Erg26p; assay: In vitro microsomal Erg26p activity assay (GC-MS)
Procedure: as §1, §2, §3, §4

Candida krusei NF2902 = assay: Antifungal MIC; assay type: cell-based; conditions: Pichia kudriavzevii

C=C(CCC(C)C1CCC2C1(C)CC(O)C13CC14C(=O)CC(O)C(C)(C(=O)O)C4C(=O)CC23O)C(C)C [FR171456, (1R,2aR,3R,5aR,5bS,7aR,8S,9S,11aS,12aR)-1,5b,9-trihydroxy-2a,8-dimethyl-3-((R)-6-methyl-5-methyleneheptan-2-yl)-7,11-dioxohexadecahydrocyclopenta[a]cyclopropa[e]-phenanthrene-8-carboxylic acid]
MIC [1]: 64 µg/mL and 144 µM | IC50 (Erg26p [2]): 2200 ± 500 nM | effect on 13C-labelled ergosterol [3]: dose-dependent reduction | effect on 13C-labelled lanosterol [3]: increase | effect on 13C-labelled zymosterol [3]: dose-dependent reduction | MIC [4]: 32 µg/mL and 72 µM | Fold change, m/z 401.3418 (calcidiol, 7α-hydroxycholest-4-en-3-one) [5]: 0.680 | Fold change, m/z 463.3183 (pfaffic acid) [5]: infinite | Fold change, m/z 465.3339 (4α-methylzymosterol-4-carboxylate) [5]: 822.2 | Fold change, m/z 467.3496 (3β-hydroxy-4β-methyl-5α-cholest-7-ene-4α-carboxylate) [5]: 3675.4 | Fold change, m/z 489.3314 (not identified) [5]: infinite | Fold change, m/z 1198.8982 (not identified) [5]: 9665.6 | Ki (Erg26p [6]): 1350 ± 300 nM | I50/Km ratio (Erg26p [6]; for the carboxysterol substrate): ~4 × 10^−3 | MIC (Candida krusei NF2902): 64 µg/mL and 144 µM
